Measured values from US11905255B1, “Solid state forms of (S)-2-(((S)-6,8-difluoro-1,2,3,4-tetrahydronaphthalen-2-yl)amino)-N-(1-(2-methyl-1-(neopentylamino)propan-2-yl)-1H-imidazol-4-yl)pentanamide and uses thereof” (Pfizer Inc., priority 2019, dated 2024).
Where two headings read alike, the source gives them in different places.

Assays:
[1] = 3 weeks slurry, gravimetric
Description: After approximately 24 hours, solids were isolated by centrifugation using eppendorf centrifuge tubes equipped with a 0.45 μm nylon filter. […] Equilibrium solubility of solids isolated were determined gravimetrically as follows. Measured aliquots of mother liquor solutions from the 3-week slurries were place in pre-weighed aluminum TGA pans. Subsequently, solvents were evaporated under ambient conditions or using vacuum. Remaining solids were weighed. • (a) Experiments were conducted for a total of ˜1 week and ˜3 weeks, both with solvent replacement after ˜1 day of slurrying. Solvent ratios (v/v) and duration of experiments are approximate.

[2] = Drying experiments on selected materials, solid form by XRPD; type: physicochemical
Source text: Table 6 summarizes the drying conditions for selected materials. • (a) Temperature, RH, and duration of experiments are approximate.

[3] = Description: Weighed samples of material were treated with aliquots of specified solvents at ambient temperature. Samples were typically sonicated between additions to facilitate dissolution. Complete dissolution was observed through visual inspection. Solubility was calculated based on the total amount of solvent added to achieve complete dissolution and may be greater than the value reported due to incremental solvent addition and the inherent kinetics of dissolution. If dissolution was not observed, values are reported as “less than”. If dissolution was observed upon the first addition of solvent, values are reported as “greater than”.
• (a) Solubility estimated using solvent addition method via visual assessment of samples. Values are rounded to nearest whole number and reported as “<” if dissolution was not observed. • (b) non-cGMP samples.

SMILES: Br.Br.CCC[C@H](N[C@H]1CCc2cc(F)cc(F)c2C1)C(=O)Nc1cn(C(C)(C)CNCC(C)(C)C)cn1 [Form A, (S)-2-(((S)-6,8-difluoro-1,2,3,4-tetrahydronaphthalen-2-yl)amino)-N-(1-(2-methyl-1-(neopentylamino)propan-2-yl)-1H-imidazol-4-yl)pentanamide]
- Solubility (b) ([1]; DMF/ACN (65/35), ambient): 10 mg/mL
- Solubility (b) ([1]; DMF/IPA (60/40), ambient): 13 mg/mL
- Solubility (b) ([1]; DMF/MIBK (85/15), ambient): 19 mg/mL
- Solubility (b) ([1]; Dioxane/H2O (70/30), ambient): 24 mg/mL
- Solubility (b) ([1]; EtOH/H2O (60/40), ambient): 36 mg/mL
- Solubility (b) ([1]; H2O, ambient): 14 mg/mL
- Solubility (b) ([1]; MEK/DMF (20/80), ambient): 17 mg/mL
- Solubility (b) ([1]; MeOH (anhydrous), 2-8° C. (cold room)): 13 mg/mL
- Solubility (b) ([1]; MeOH/Acetone (anhydrous) (50/50), ambient): 7 mg/mL
- Solubility (b) ([1]; MeOH/EtOAc (anhydrous) (70/30), ambient): 6 mg/mL
- Solubility (b) ([1]; MeOH/H2O (20/80), ambient): 17 mg/mL
- Solubility (b) ([1]; NMP/Acetone (anhydrous) (85/15), ambient): 36 mg/mL
- Solubility (b) ([1]; PG, ambient): 8 mg/mL
- Solubility (b) ([1]; THF/H2O (85/15), ambient): 25 mg/mL

SMILES: Br.Br.CCC[C@H](N[C@H]1CCc2cc(F)cc(F)c2C1)C(=O)Nc1cn(C(C)(C)CNCC(C)(C)C)cn1 [Form D, (S)-2-(((S)-6,8-difluoro-1,2,3,4-tetrahydronaphthalen-2-yl)amino)-N-(1-(2-methyl-1-(neopentylamino)propan-2-yl)-1H-imidazol-4-yl)pentanamide]
- XRPD Results after drying ([2]; Dried on P2O5, RT, 17 days, RH at prep.: 3%, RH at run: 43%, cell continues: selected peaks slightly shifted): Consistent with Form D,

SMILES: Br.Br.CCC[C@H](N[C@H]1CCc2cc(F)cc(F)c2C1)C(=O)Nc1cn(C(C)(C)CNCC(C)(C)C)cn1 [dihydrobromide salt of Compound 1, dihydrobromide salt of (s)-2-(((s)-6,8-difluoro-1,2,3,4-tetrahydronaphthalen-2-yl)amino)-n-(1-(2-methyl-1-(neopentylamino)propan-2-yl)-1h-imidazol-4-yl)pentanamide]
- Solubility Estimate (a) [3]: <1 mg/mL

SMILES: Br.Br.CCC[C@H](N[C@H]1CCc2cc(F)cc(F)c2C1)C(=O)Nc1cn(C(C)(C)CNCC(C)(C)C)cn1 [Form F, (S)-2-(((S)-6,8-difluoro-1,2,3,4-tetrahydronaphthalen-2-yl)amino)-N-(1-(2-methyl-1-(neopentylamino)propan-2-yl)-1H-imidazol-4-yl)pentanamide]
- XRPD Results after drying ([2]; VO, 75° C., 1 day): Consistent with Form D
- XRPD Results after drying ([2]; VO, 77° C., 1 day): Consistent with Form F;
